Active and inactive are the calls of the source.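 Rule for the calls: active = IC50 no higher than ten times the top tested dose; inconclusive = flat fit with 30 to 70% inhibition, or poor fit; inactive = IC50 above ten times the top dose.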
Experiment: growth modulation of Clostridium difficile isolate – OD600, 9-point, retest, dose response (AID 1224920);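 note: plate controls were DMSO for no effect and levofloxacin control for full effect; inhibitors lower culture turbidity so OD600 falls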
Settings: Clostridium difficile clinical isolate growth, OD600, 24 h

SMILES: COc1cccc(-c2ccc(C3[C@@H]4CN(C(=O)C5CCCCC5)C[C@H]3N4)cc2)c1 (some centres not stated)
- activity change, negative = inhibition (at 60 µM (top of the series)): 34.7% (inactive)

SMILES: CC(=O)N1[C@H](CO)[C@@H](c2ccccc2)[C@H]1CN(C)C(=O)CN1CCOCC1
- activity change, negative = inhibition (at 135 µM (top of the series)): -1.86% (inactive)

SMILES: Cc1ccccc1-c1ccc(C2[C@@H]3CN(C(=O)C4CCCC4)C[C@H]2N3)cc1 (some centres not stated)
- activity change, negative = inhibition (at 60 µM (top of the series)): 34.2% (inactive)

SMILES: CN1[C@@H]2c3ccc(/C=C/c4ccccc4)c(=O)n3C[C@H]1[C@H](CO)[C@H]2C(=O)NC1CCCC1
- activity change, negative = inhibition (at 120 µM (top of the series)): 4.99% (inactive)

SMILES: COc1ccc2c3c(n(C)c2c1)[C@H](CO)N(C(=O)c1cccnc1)CC31CCN(C(=O)c2cccnc2)CC1
- activity change, negative = inhibition (at 120 µM (top of the series)): 0.941% (inactive)

SMILES: C/C=C/c1ccc(C2[C@@H]3CN(Cc4cccc(OC)c4)C[C@H]2N3)cc1 (some centres not stated)
- activity change, negative = inhibition (at 60 µM (top of the series)): 20.9% (inactive)

SMILES: O=C(Nc1ccc(F)cc1)N1CCCCN2[C@H](C1)[C@@H](c1ccc(-c3cccc(F)c3)cc1)[C@@H]2CO
- activity change, negative = inhibition (at 120 µM (top of the series)): 43.3% (inactive)

SMILES: N#Cc1cccc(-c2ccc(C3[C@H]4CNC[C@@H]3N4C(=O)Nc3ccc(F)cc3)cc2)c1 (some centres not stated)
- activity change, negative = inhibition (at 68 µM (top of the series)): 21.6% (inactive)

SMILES: CCC(=O)N1CC(=O)N2[C@H](CO)[C@@H](c3ccc(C#CC4CCCCC4)cc3)[C@@H]2C1
- activity change, negative = inhibition (at 30 µM (top of the series)): -9.02% (inactive)

SMILES: C/C=C/c1ccc([C@@H]2[C@@H](CO)N(C(=O)CC)[C@@H]2CNC(=O)CC)cc1
- activity change, negative = inhibition (at 120 µM (top of the series)): -6.09% (inactive)

SMILES: C[C@H]1CN([C@@H](C)CO)C(=O)c2cccc(NC(=O)Nc3ccc(C(F)(F)F)cc3)c2O[C@@H]1CN(C)C(=O)Nc1ccc(C(F)(F)F)cc1
- activity change, negative = inhibition (at 135 µM (top of the series)): 33.9% (inactive)

SMILES: C[C@H](CO)N1C[C@H](C)[C@H](CN(C)Cc2ccc(Oc3ccccc3)cc2)Oc2ccc(NS(=O)(=O)c3ccccc3)cc2CC1=O
- activity change, negative = inhibition (at 60 µM (top of the series)): 33.6% (inactive)

SMILES: O=C(Nc1cccc(F)c1)N1CC(=O)N2[C@H](C1)[C@H](c1ccc(-c3cccc(F)c3)cc1)[C@@H]2CO
- activity change, negative = inhibition (at 135 µM (top of the series)): 37.9% (inactive)

SMILES: N#C[C@H]1[C@@H](c2ccccc2-c2ccccc2)[C@H](CO)N1C(=O)Cc1ccccc1
- activity change, negative = inhibition (at 120 µM (top of the series)): 32.6% (inactive)

SMILES: CCCNC(=O)N1[C@H](C#N)[C@@H](c2ccccc2-c2ccc(C)cc2)[C@@H]1CO
- activity change, negative = inhibition (at 120 µM (top of the series)): 17% (inactive)

SMILES: COc1ccc(NC(=O)N2CC[C@@H]3[C@H]2c2cc(Br)ccc2N(C)[C@@H]3CO)cc1
- activity change, negative = inhibition (at 135 µM (top of the series)): 17.8% (inactive)

SMILES: N#C[C@@H]1[C@@H](c2ccccc2-c2cccc(F)c2)[C@H](CO)N1C(=O)NC1CCCCC1
- activity change, negative = inhibition (at 120 µM (top of the series)): 9.02% (inactive)

SMILES: C/C=C/c1ccc([C@@H]2[C@H](CO)N(C(=O)CC)[C@H]2CNC(=O)CC)cc1
- activity change, negative = inhibition (at 120 µM (top of the series)): -7.3% (inactive)

SMILES: O=C(Nc1ccccc1F)N1C[C@@H]2N[C@H](C1)C2c1ccc(-c2cccc(F)c2)cc1 (some centres not stated)
- activity change, negative = inhibition (at 60 µM (top of the series)): 33.4% (inactive)

SMILES: C/C=C/c1ccc([C@H]2[C@@H](CNC(=O)c3ccccn3)N(C(C)=O)[C@H]2CO)cc1
- activity change, negative = inhibition (at 135 µM (top of the series)): -7.58% (inactive)

SMILES: N#Cc1cccc(-c2ccc(C3[C@@H]4CN(S(=O)(=O)Cc5ccccc5)C[C@H]3N4)cc2)c1 (some centres not stated)
- activity change, negative = inhibition (at 60 µM (top of the series)): 29.4% (inactive)

SMILES: C/C=C/c1ccc([C@H]2[C@@H](CNC(C)C)N(c3nc(CC)cs3)[C@H]2CO)cc1
- activity change, negative = inhibition (at 135 µM (top of the series)): 32.5% (inactive)

SMILES: C/C=C/c1ccc([C@H]2[C@H](CO)N(C(=O)CC)[C@H]2CNC(=O)CC)cc1
- activity change, negative = inhibition (at 135 µM (top of the series)): -9.32% (inactive)

SMILES: O=S(=O)(c1cccc(F)c1)N1CC[C@@H]2[C@@H](CO)Nc3ccc(-c4cccc(F)c4)cc3[C@@H]21
- activity change, negative = inhibition (at 120 µM (top of the series)): 45.7% (inactive)

SMILES: CC(=O)NC[C@@H]1[C@H](c2ccc(-c3cccc(F)c3)cc2)[C@@H](CO)N1C(C)=O
- activity change, negative = inhibition (at 120 µM (top of the series)): -11.6% (inactive)

SMILES: COc1ccc2c3c([nH]c2c1)[C@H](CO)N(C(=O)c1ccccc1)CC31CN(C(=O)Nc2cccc(F)c2)C1
- activity change, negative = inhibition (at 120 µM (top of the series)): 39% (inactive)

SMILES: COc1ccc2c3c(n(C)c2c1)[C@H](CO)NCC31CN(Cc2ccc(F)cc2)C1
- activity change, negative = inhibition (at 60 µM (top of the series)): 7.43% (inactive)
